# Values quoted from earlier work in article PMC8308777, “Small Molecule–Peptide Conjugates as Dimerization Inhibitors of Leishmania infantum Trypanothione Disulfide Reductase” (Pharmaceuticals, 2021).
# Biological target: T1, Leishmania infantum trypanothione disulfide reductase (LiTryR) (Leishmania infantum, UniProt A4HSF7)
# T1 construct: HIS; made in house; host or cells: E. coli BL21 (DE3) Rossetta 2
# Conditions: earlier work of the authors; cited from earlier work
# Text: Considering that the biologically functional form of TryR is a homodimer, in 2013, we devised an alternative inhibition strategy aimed at disrupting the protein–protein interactions at the homodimer interface of Leishmania infantum TryR (LiTryR). Thus, by combining molecular modeling and site-directed mutagenesis studies, we identified and validated, for the first time, Glu436 (located at an interfacial α-helix spanning from Pro435 to Met447) as a “hotspot” for LiTryR homodimer stabilization. As a “proof of concept”, we designed and tested a small library of linear peptides [[22] ...
# T1 sequence (A4HSF7 entry or part of it): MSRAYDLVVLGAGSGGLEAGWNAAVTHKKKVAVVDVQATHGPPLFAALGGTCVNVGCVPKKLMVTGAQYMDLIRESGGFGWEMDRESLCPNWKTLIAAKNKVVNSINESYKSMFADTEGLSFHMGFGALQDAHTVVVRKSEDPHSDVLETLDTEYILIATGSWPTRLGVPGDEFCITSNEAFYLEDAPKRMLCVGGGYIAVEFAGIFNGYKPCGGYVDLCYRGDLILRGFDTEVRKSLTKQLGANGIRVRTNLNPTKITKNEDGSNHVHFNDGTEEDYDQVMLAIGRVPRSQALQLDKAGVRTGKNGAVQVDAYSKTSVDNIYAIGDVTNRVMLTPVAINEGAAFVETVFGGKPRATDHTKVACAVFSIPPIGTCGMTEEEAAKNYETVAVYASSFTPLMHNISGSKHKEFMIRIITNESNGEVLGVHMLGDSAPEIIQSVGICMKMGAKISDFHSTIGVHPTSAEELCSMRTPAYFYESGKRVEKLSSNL
substance,measurement,value
"Ac-PKIIQSVGISMKM-NH2 [TRL35, Nα-acetylated 13-mer peptide, earlier LiTryR dimerization disruptor]",inhibition of the oxidoreductase activity of LiTryR,submicromolar range
